Test results published in article PMC6481325, “Novel N,N-dialkyl cyanocinnamic acids as monocarboxylate transporter 1 and 4 inhibitors” (Oncotarget, 2019).
Entries after “also recorded” stand apart in the source; their conditions may differ. Read-outs that look alike come from different tables or passages of the source.

Tests used:
[1] = set-up: method as in ref 32 = [32]; PMID 26005533; doi:10.1021/acsmedchemlett.5b00049; 32 Gurrapu S Jonnalagadda SK Alam MA Nelson GL Sneve MG Drewes LR Mereddy VR Monocarboxylate transporter 1 inhibitors as potential anticancer agents ACS Med Chem Lett 2015 6 558 61 10.1021/acsmedcheml; conditions: in vivo; cited from earlier work
[2] = system: MCT4 expressing MDA-MB-231 cells; assay: Seahorse XFe96 glycolysis stress test (ECAR), MDA-MB-231; format: cell-based; conditions: 30 μM
Experimental: (§1) In the GST, three parameters namely glycolysis, glycolytic capacity and glycolytic reserve were measured.
(§2) Extracellular acidification rates (ECAR) and oxygen consumption rates (OCR) were recorded in real-time for glycolysis stress test (GST) and mitochondrial stress test (MST), respectively, using Agilent Seahorse XFe96® analyzer.

[3] = system: MCT1 expressing WiDr cells; assay: Seahorse XFe96 mitochondrial stress test (OCR), WiDr; format: cell-based; conditions: 30 μM
Experimental: as §2

[4] = system: MCT4 expressing MDA-MB-231 cells; assay: Seahorse XFe96 mitochondrial stress test (OCR), MDA-MB-231; format: cell-based; conditions: 30 μM
Experimental: as §2

MCT4 = molecular target: T1, MCT4 (Homo sapiens, UniProt O15427); assay: L-[14C]-lactate uptake study in MCT4 expressing MDA-MB-231 cells; format: cell-based; conditions: read-out: MCT4 IC50
T1 construct: These cells predominantly express MCT4 as confirmed by Western blot and quantitative PCR analysis; host or cells: MDA-MB-231
T1 sequence (O15427 2-465 limits assumed): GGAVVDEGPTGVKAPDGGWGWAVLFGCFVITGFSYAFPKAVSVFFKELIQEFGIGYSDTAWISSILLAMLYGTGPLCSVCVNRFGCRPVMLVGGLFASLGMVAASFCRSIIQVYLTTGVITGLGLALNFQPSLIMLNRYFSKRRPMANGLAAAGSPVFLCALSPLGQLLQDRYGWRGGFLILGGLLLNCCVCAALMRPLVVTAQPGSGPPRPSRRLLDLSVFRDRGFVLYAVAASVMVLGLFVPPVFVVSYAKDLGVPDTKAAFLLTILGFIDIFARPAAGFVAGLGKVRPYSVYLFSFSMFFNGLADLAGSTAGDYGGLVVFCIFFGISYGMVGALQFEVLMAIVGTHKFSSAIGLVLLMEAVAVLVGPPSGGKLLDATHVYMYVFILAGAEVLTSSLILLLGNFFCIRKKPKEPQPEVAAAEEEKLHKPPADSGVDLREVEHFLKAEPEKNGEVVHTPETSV
T1 sequence (P35613 140-385 partner limits assumed): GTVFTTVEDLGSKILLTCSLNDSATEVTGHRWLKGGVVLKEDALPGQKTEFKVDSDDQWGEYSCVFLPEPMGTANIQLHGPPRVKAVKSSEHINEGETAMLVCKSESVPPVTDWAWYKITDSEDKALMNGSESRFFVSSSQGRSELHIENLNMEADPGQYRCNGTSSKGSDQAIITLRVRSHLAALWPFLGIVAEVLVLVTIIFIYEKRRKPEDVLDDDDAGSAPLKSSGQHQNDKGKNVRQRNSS
Experimental: In this study, an L-[^14C]-lactate based transport assay was developed by us to quantify MCT4 transport and its inhibition by test compounds. […] For the MCT4 transport assay, the pH of HEPES buffer with L-[^14C]-lactate was adjusted to 7.0 such that lactate influx into the cells was aided by the pH gradient. […] Test compounds were diluted to working concentration in HEPES buffer (140 mM NaCl, 5 mM KCl, 2 mM CaCl2, 2 mM MgCl2, 10 mM HEPES, pH 7.0) containing 3 μM L-[^14C]-lactate (Perkin Elmer) and 2 μM L-lactate. […] HEPES buffer was replaced with 250 μL test solution. After 1 hour, media was replaced with 500 μL ice-cold stop buffer (0.1 mM CHC solution in HBS, pH 7.4) and the plates were placed on ice. Cells were washed twice with ice-cold stop buffer and solubilized using 250 μL of 0.1 M NaOH in 5% Triton-X (Millipore Sigma). A 150 μL aliquot from each well was added to 4 mL EcoLite(+)™ scintillation fluid (MP Biomedicals) and radioactivity was determined by scintillation spectrometry. Inhibition by each test solution was calculated as a percentage of the maximum control uptake. CHC and dimethylsulfoxide (DMSO) were used as controls. […]

WiDr tumor xenograft = system: WiDr tumor xenograft; set-up: method as in ref 32, 33 = [32]; PMID 26005533; doi:10.1021/acsmedchemlett.5b00049; 32 Gurrapu S Jonnalagadda SK Alam MA Nelson GL Sneve MG Drewes LR Mereddy VR Monocarboxylate transporter 1 inhibitors as potential anticancer agents ACS Med Chem Lett 2015 6 558 61 10.1021/acsmedcheml || [33]; 33 Mereddy VR Drewes LR Alam MA Jonnalagadda SK Gurrapu S Therapeutic Compounds US 9296728B2 United States Patent and Trademark Office 2016 https://app.dimensions.ai/details/patent/US-9296728-B2; conditions: mice, three weeks; cited from earlier work
[5] = system: MCT1 expressing WiDr cells; assay: Seahorse XFe96 glycolysis stress test (ECAR), WiDr; format: cell-based; conditions: 30 μM
Experimental: as §1, §2

WiDr cells = assay: SRB cell proliferation inhibition assay, WiDr; format: cell-based; conditions: Homo sapiens, 72 hours, average ± sem
Experimental: MDA-MB-231 cells (ATCC, 2015) were grown in DMEM supplemented with 10% FBS and penicillin-streptomycin (50 U/ml, 50 μg/ml, Invitrogen). WiDr cells (ATCC, 2017) were cultured in MEM medium supplemented with 10% FBS (Atlanta Biologicals) and penicillin-streptomycin (50 U/ml, 50 μg/ml). For in vitro experiments, after seeding, cells were incubated at 37°C in 5% CO2 for 18–24 hours before the addition of test compounds.
Cells (5 × 10^4 cells/mL) were cultured in 48-well plates. Test compounds were dissolved in DMSO (final concentration of DMSO is <0.1%) and were added to culture wells at various concentrations in replicate and incubated for 72 hours. Growth medium was removed and the wells were washed with PBS and dried. SRB (0.5% in 1% acetic acid) was added to the wells and incubated for 30–45 minutes. The wells were washed 3 times with 1% acetic acid and dried. The cellular protein was dissolved in trizma base (10 mM, pH 10.2) and absorbance was recorded at 540 nm. Percent survival was calculated using the formula %Survival=Abstest compound/Abscontrol×100 .

COc1cc(N(c2ccccc2)c2ccccc2)ccc1/C=C(\C#N)C(=O)O [Phenyl (9)]
elimination from plasma [1]: most of the compound was eliminated in less than one hour
time of peak plasma concentration [1]: 15 min
glycolytic capacity (GST, ECAR) [2]: decreased
glycolytic reserve (GST, ECAR) [2]: completely arrested
ATP production (MST, OCR) [3]: significantly decreased
maximal respiration (MST, OCR) [3]: significantly decreased
proton leak (MST, OCR) [3]: significantly increased proton leak compared to compound 3
spare respiratory capacity (MST, OCR) [3]: significantly decreased
ATP production (MST, OCR) [4]: significantly decreased
maximal respiration (MST, OCR) [4]: significantly decreased
proton leak (MST, OCR) [4]: significantly increased
spare respiratory capacity (MST, OCR) [4]: significantly decreased
IC50 (MCT4; Figure 1A and text, lactate uptake): 23 nM
IC50 (MCT4; Supplementary Table 1, average ± SEM): 18 ± 8 nM
tumor growth reduction (WiDr tumor xenograft): 33%
glycolytic capacity (GST, ECAR) [5]: decreased; also recorded: significant decrease
glycolytic reserve (GST, ECAR) [5]: completely arrested; also recorded: significant decrease
IC50 (WiDr cells): 4.2 ± 0.4 µM
